From patent publication US5010058A, “3,5,6-substituted derivatives of 1,2-O-isopropylidene-α,D-glucofuranose and intermediates for preparing these derivatives” (501 Greenwich Pharmaceuticals Incorporated, priority 1989, dated 1991)
Like-named read-outs stand apart in the source and are kept apart here.

Key:
[1] = tested on: BUD-8 skin cell fibroblasts; assay: Proliferation of BUD-8 skin cell fibroblasts (3H-thymidine uptake); type: cell-based, human; conditions: for 3H-Thymidine uptake by BUD-8 skin cells: triplicates ± SD
Description: The human skin cell fibroblast line, BUD-8, was originally derived from the normal skin of a person and can now be obtained from the American Type Culture Collection.
The number of BUD-8 cells was expanded for use by culture in 25 cm^2 flasks at 37° C. in an atmosphere of 5% CO2 in air. At approximately 4-5 five day intervals, or when confluence was reached, the cells were passaged. This was accomplished by detaching the cells with a Teflon scraper, washing and reseeding the cells at a lower density into fresh tissue culture flasks.
The effect of these compound on the proliferative capacity of human BUD-8 skin fibroblasts was measured with the use of a ^3 H-thymidine incorporation assay using culture conditions which were similar to those used for the Con-A blastogenesis assay, described previously. Cultured skin cells were detached from the surface of tissue culture flasks mechanically with a Teflon scraper. The cells were washed, resuspended in incubation medium and the viabilities were determined. These cells were then plated in triplicate at a density of 2×10^3 cells/0.1 ml/microtiter well for the proliferation assays. […] Eighteen hours later, each of the BUD-8 cultures was examined morphologically for evidence of compound-induced toxicity such as cell rounding or granularity. The thymidine-pulsed cells were then precipitated and the amount of ^3 H-thymidine incorporation was counted in a liquid scintillation counter. […]
(§1) ^a Experimental compounds were first suspended in DMSO or ethanol,
^b The effect of experimental compounds on the proliferation of BUD8

[2] = tested on: normal spleen cells / splenic T-lymphocytes (Con-A stimulated); assay: Con-A blastogenic response of normal spleen cells (3H-thymidine incorporation); type: cell-based, mouse (C57Bl/6); conditions: for Blastogenic response of normal spleen cells to Con-A: triplicates ± SD; for inhibition at 1 µg/mL / inhibition at 10 µg/mL / inhibition at 25 µg/mL / inhibition at 100 µg/mL / inhibition at 300 µg/mL / inhibition at 750 µg/mL: Mus musculus, T-lymphocyte, 72 h, percent change from no compound, read-out: Blastogenic response of normal spleen cells to Con-A, % effect
From the text: A simple method is used to screen compounds for their ability to modulate T-lymphocyte activity which comprises assessing the capacity of the compounds to alter the activation of murine spleen cells in response to T-lymphocyte mitogen activators, such as concanavalin-A (Con-A). The method used to measure the effects of the compounds of the present invention on the blastogenic response of spleen cells to the T-lymphocyte mitogen, (i.e., Con-A), is as follows.
Spleen cells were removed from normal C57Bl/6 mice and homogenized to obtain a single cell suspension. Erythrocytes were lysed by hypotonic shock. Upon determination of the viability and concentration of the remaining lymphoid cells, they were adjusted to a concentration of 4×10^6 /ml. These spleen cells (2×10^5 cells per […]) were seeded into wells of microtiter plates with the compounds of the present invention having the following dose concentrations:
Con-A was also added to these cultures at a final concentration of […]. These cells were cultured for 3 days at 37° C. in a humidified atmosphere of 5% CO2 in air. For the last 18 hours of culture, […] H-thymidine was added to each well. The cells were then precipitated by a multichannel harvester. The amount of ^3 H-thymidine incorporated by the cultured cells were measured in a liquid scintillation counter (Disintegrations per min., DPM). All assays were conducted in triplicate.
The incubation medium used for the blastogenesis assays was RPMI-1640 medium containing 10% fetal bovine serum, […] streptomycin, 100 U/ml penicillin, […] Hepes buffer solution, 5×10^-5 M 2-mercaptoethanol and 2 mM glutamine.
as §1
^b The effect of experimental compounds on the blastogenic response o

[3] = tested on: normal spleen cells / splenic T-lymphocytes (Con-A stimulated); conditions: THERAFECTIN comparison; cited from earlier work
[4] = in vivo; cited from earlier work
[5] = Con-A 1 ug/ml, compound 1 ug/ml
[6] = Con-A 1 ug/ml, compound 10 ug/ml
[7] = Con-A 1 ug/ml, compound 25 ug/ml
[8] = Con-A 1 ug/ml, compound 100 ug/ml
[9] = Con-A 1 ug/ml, compound 300 ug/ml
[10] = Con-A 1 ug/ml, compound 750 ug/ml
[11] = Con-A 4 ug/ml, compound 1 ug/ml
[12] = Con-A 4 ug/ml, compound 10 ug/ml
[13] = Con-A 4 ug/ml, compound 25 ug/ml
[14] = Con-A 4 ug/ml, compound 100 ug/ml
[15] = Con-A 4 ug/ml, compound 300 ug/ml
[16] = Con-A 4 ug/ml, compound 750 ug/ml

CCCCCCCOC1C(C(C)O)OC2OC(C)(C)OC21 [Ex. 3, 1,2-O-Isopropylidene-3-O-(n-heptyl)-6-deoxy-α,D-glucofuranose]
anti-proliferative effect on skin cells [1]: anti-proliferative effect that was statistically significant | inhibition at 1 µg/mL ([1]; Homo sapiens, Fibroblast, compound 1 ug/ml, percent change from no compound, read-out: 3H-Thymidine uptake by BUD-8 skin cells, % effect): 58% | inhibition at 10 µg/mL ([1]; Homo sapiens, Fibroblast, compound 10 ug/ml, percent change from no compound, read-out: 3H-Thymidine uptake by BUD-8 skin cells, % effect): 49% | inhibition at 25 µg/mL ([1]; Homo sapiens, Fibroblast, compound 25 ug/ml, percent change from no compound, read-out: 3H-Thymidine uptake by BUD-8 skin cells, % effect): 19% | inhibition at 100 µg/mL ([1]; Homo sapiens, Fibroblast, compound 100 ug/ml, percent change from no compound, read-out: 3H-Thymidine uptake by BUD-8 skin cells, % effect): 30% | inhibition at 300 µg/mL ([1]; Homo sapiens, Fibroblast, compound 300 ug/ml, percent change from no compound, read-out: 3H-Thymidine uptake by BUD-8 skin cells, % effect): 66% | inhibition at 750 µg/mL ([1]; Homo sapiens, Fibroblast, compound 750 ug/ml, percent change from no compound, read-out: 3H-Thymidine uptake by BUD-8 skin cells, % effect): 43% | 3H-Thymidine uptake by BUD-8 skin cells ([1]; compound 1 ug/ml): 2,589 ± 202 cpm | 3H-Thymidine uptake by BUD-8 skin cells ([1]; compound 10 ug/ml): 3,139 ± 232 cpm | 3H-Thymidine uptake by BUD-8 skin cells ([1]; compound 25 ug/ml): 4,978 ± 632 cpm | 3H-Thymidine uptake by BUD-8 skin cells ([1]; compound 100 ug/ml): 4,288 ± 723 cpm | 3H-Thymidine uptake by BUD-8 skin cells ([1]; compound 300 ug/ml): 2,067 ± 302 cpm | 3H-Thymidine uptake by BUD-8 skin cells ([1]; compound 750 ug/ml): 3,496 ± 1,084 cpm

CCCCCCCOC(C)C1OC2OC(C)(C)OC2C1OCCCN(C)C [Ex. 6, 1,2-O-Isopropylidene-3-O-3'-(N'-N'-dimethylaminopropyl)-5-O-n-heptyl-6-deoxy-α,D-glucofuranose]
Blastogenic response of normal spleen cells to Con-A [2, 5]: 86,406 ± 16,348 cpm | Blastogenic response of normal spleen cells to Con-A [2, 6]: 12,670 ± 6,997 cpm | Blastogenic response of normal spleen cells to Con-A [2, 7]: 5,399 ± 3,253 cpm | Blastogenic response of normal spleen cells to Con-A [2, 8]: 6,597 ± 2,887 cpm | Blastogenic response of normal spleen cells to Con-A [2, 9]: 3,693 ± 340 cpm | Blastogenic response of normal spleen cells to Con-A [2, 10]: 3,709 ± 281 cpm | Blastogenic response of normal spleen cells to Con-A [2, 11]: 75,689 ± 8,498 cpm | Blastogenic response of normal spleen cells to Con-A [2, 12]: 4,693 ± 1,930 cpm | Blastogenic response of normal spleen cells to Con-A [2, 13]: 6,187 ± 6,859 cpm | Blastogenic response of normal spleen cells to Con-A [2, 14]: 6,741 ± 4,224 cpm | Blastogenic response of normal spleen cells to Con-A [2, 15]: 3,756 ± 923 cpm | Blastogenic response of normal spleen cells to Con-A [2, 16]: 2,933 ± 1,383 cpm | inhibition at 1 µg/mL [2, 5]: -20% | inhibition at 10 µg/mL [2, 6]: 82% | inhibition at 25 µg/mL [2, 7]: 93% | inhibition at 100 µg/mL [2, 8]: 91% | inhibition at 300 µg/mL [2, 9]: 95% | inhibition at 750 µg/mL [2, 10]: 95% | inhibition at 1 µg/mL [2, 11]: 22% | inhibition at 10 µg/mL [2, 12]: 95% | inhibition at 25 µg/mL [2, 13]: 94% | inhibition at 100 µg/mL [2, 14]: 93% | inhibition at 300 µg/mL [2, 15]: 96% | inhibition at 750 µg/mL [2, 16]: 97%

CN(C)CCCO[C@@H]1[C@H]2OC(C)(C)O[C@H]2O[C@@H]1[C@H](O)CO [THERAFECTIN, 1,2-O-Isopropylidene-3-O-3('N,N'-dimethylamino-n-propyl)-α,D-glucofuranose]
usual concentration for significant inhibition [3]: 1,000 ug/ml | toxicity [4]: little toxicity | utility in rheumatoid arthritis [4]: demonstrated utility in managing the signs and symptoms of rheumatoid arthritis
